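The compound was tested at five concentrations on cells cultured in 96-well plates, with a 48-hour exposure period. The concentration for full growth arrest is given as TGI.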
Tests used:
Test in all cases: growth of human tumour cells (NCI), 48 h
786-0 renal = tested on: 786-0 renal
A498 renal = tested on: A498 renal
A549 NSCLC = tested on: A549 NSCLC
ACHN renal = tested on: ACHN renal
BT-549 breast = tested on: BT-549 breast
CAKI-1 renal = tested on: CAKI-1 renal
CCRF-CEM leukemia = tested on: CCRF-CEM leukemia
COLO 205 colon = tested on: COLO 205 colon
DU-145 prostate = tested on: DU-145 prostate
EKVX NSCLC = tested on: EKVX NSCLC
HCC-2998 colon = tested on: HCC-2998 colon
HCT-116 colon = tested on: HCT-116 colon
HCT-15 colon = tested on: HCT-15 colon
HL-60(TB) leukemia = tested on: HL-60(TB) leukemia
HOP-62 NSCLC = tested on: HOP-62 NSCLC
HOP-92 NSCLC = tested on: HOP-92 NSCLC
HS 578T breast = tested on: HS 578T breast
HT29 colon = tested on: HT29 colon
IGROV1 ovarian = tested on: IGROV1 ovarian
K-562 leukemia = tested on: K-562 leukemia
KM12 colon = tested on: KM12 colon
LOX IMVI melanoma = tested on: LOX IMVI melanoma
M14 melanoma = tested on: M14 melanoma
MALME-3M melanoma = tested on: MALME-3M melanoma
MCF7 breast = tested on: MCF7 breast
MDA-MB-231 breast = tested on: MDA-MB-231 breast
MDA-MB-435 = tested on: MDA-MB-435
MDA-N = tested on: MDA-N
MOLT-4 leukemia = tested on: MOLT-4 leukemia
NCI-H226 lung = tested on: NCI-H226 lung
NCI-H23 lung = tested on: NCI-H23 lung
NCI-H460 lung = tested on: NCI-H460 lung
NCI-H522 lung = tested on: NCI-H522 lung
NCI/ADR-RES ovarian = tested on: NCI/ADR-RES ovarian
OVCAR-3 ovarian = tested on: OVCAR-3 ovarian
OVCAR-4 ovarian = tested on: OVCAR-4 ovarian
OVCAR-5 ovarian = tested on: OVCAR-5 ovarian
OVCAR-8 ovarian = tested on: OVCAR-8 ovarian
PC-3 prostate = tested on: PC-3 prostate
RPMI-8226 leukemia = tested on: RPMI-8226 leukemia
RXF 393 renal = tested on: RXF 393 renal
SF-268 CNS = tested on: SF-268 CNS
SF-295 CNS = tested on: SF-295 CNS
SF-539 CNS = tested on: SF-539 CNS
SK-MEL-2 melanoma = tested on: SK-MEL-2 melanoma
SK-MEL-28 melanoma = tested on: SK-MEL-28 melanoma
SK-MEL-5 melanoma = tested on: SK-MEL-5 melanoma
SK-OV-3 ovarian = tested on: SK-OV-3 ovarian
SN12C renal = tested on: SN12C renal
SNB-19 CNS = tested on: SNB-19 CNS
SNB-75 CNS = tested on: SNB-75 CNS
SR leukemia = tested on: SR leukemia
SW-620 colon = tested on: SW-620 colon
T-47D breast = tested on: T-47D breast
TK-10 renal = tested on: TK-10 renal
U251 CNS = tested on: U251 CNS
UACC-257 melanoma = tested on: UACC-257 melanoma
UACC-62 melanoma = tested on: UACC-62 melanoma
UO-31 renal = tested on: UO-31 renal

Measured: TGI

CNC(=O)C(C)NC(=O)C(Cc1ccccc1)NC(=O)c1ccccc1 (stereo not given)
> 100 µM: all assays above

Cc1ccc([N+](=O)[O-])cc1S(=O)(=O)Nc1ccc(C2=NN(S(=O)(=O)c3cc([N+](=O)[O-])ccc3C)C(c3ccccc3)C2)cc1 (stereo not given)
89.4 µM: OVCAR-3 ovarian
98.1 µM: M14 melanoma
61.6 µM: SK-MEL-2 melanoma
50.6 µM: NCI-H522 lung
97.3 µM: MDA-N
90.9 µM: MDA-MB-231 breast
56.7 µM: SF-268 CNS
55.5 µM: NCI-H460 lung
76.1 µM: RPMI-8226 leukemia
21.2 µM: HS 578T breast
81.1 µM: NCI/ADR-RES ovarian
59.8 µM: HCC-2998 colon
62.8 µM: MALME-3M melanoma
51.8 µM: HCT-116 colon
98.8 µM: PC-3 prostate
60.5 µM: NCI-H23 lung
82.6 µM: A498 renal
74.7 µM: UACC-257 melanoma
44.7 µM: UACC-62 melanoma
78.8 µM: COLO 205 colon
57.2 µM: BT-549 breast
not listed: SF-539 CNS
> 100 µM: all other assays above

CCOC1CN=C(Nc2cccc3ccccc23)S1 (stereo not given)
not listed: UO-31 renal
> 10 µM: all other assays above
